# What was measured:
# [1] = molecular target: T1, Recombinant full-length human IDO1 (Homo sapiens, UniProt P14902); experiment: IDO1 enzymatic assay (NFK quantified by LCMS); type: biochemical; settings: 2 nM enzyme, 5 μM L-tryptophan, pH6.5, 30 minutes pre-incubation at RT; mean values when measured multiple times; read-out: hIDO activity (IC50 in nM)
# T1 construct: Recombinant full-length human IDO1 with a N-terminal hexahistidine tag; hexahistidine (His6) (N); made in house; host or cells: E. coli
# How it was run: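 His-tagged human IDO1 (2 nM) in pH 6.5 phosphate buffer with ascorbate, methylene blue and catalase was preincubated with compound (10 μM–0.5 nM, 0.6% DMSO) for 30 min at RT. The reaction then ran with 5 μM L-Trp for 30 min. NFK was measured by LCMS against a d5-Trp standard, and IC50 was obtained by four-parameter fit.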
# [2] = molecular target: T2, Recombinant human TDO comprising amino acids 19-407 (Homo sapiens, UniProt P48775); experiment: TDO2 enzymatic assay (NFK quantified by LCMS); type: biochemical; settings: 15 nM enzyme, 200 μM L-tryptophan, pH7, 30 minutes pre-incubation at RT; mean values when measured multiple times; read-out: hTDO activity (IC50 in nM)
# T2 construct: Recombinant human TDO comprising amino acids 19-407 with a N-terminal hexahistidine tag; hexahistidine (His6) (N); made in house; host or cells: E. coli
# How it was run: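 NFK formed over 30 min at RT from 200 μM L-tryptophan was measured by LCMS, normalized to d5-tryptophan, after compound (0.5 nM–10 μM, duplicates, 0.6% DMSO) was preincubated 30 min with 15 nM recombinant His-tagged TDO 19-407 in phosphate buffer pH 7. IC50 from four-parameter logistic fit; repeats averaged.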
# T1 sequence (P14902 whole entry): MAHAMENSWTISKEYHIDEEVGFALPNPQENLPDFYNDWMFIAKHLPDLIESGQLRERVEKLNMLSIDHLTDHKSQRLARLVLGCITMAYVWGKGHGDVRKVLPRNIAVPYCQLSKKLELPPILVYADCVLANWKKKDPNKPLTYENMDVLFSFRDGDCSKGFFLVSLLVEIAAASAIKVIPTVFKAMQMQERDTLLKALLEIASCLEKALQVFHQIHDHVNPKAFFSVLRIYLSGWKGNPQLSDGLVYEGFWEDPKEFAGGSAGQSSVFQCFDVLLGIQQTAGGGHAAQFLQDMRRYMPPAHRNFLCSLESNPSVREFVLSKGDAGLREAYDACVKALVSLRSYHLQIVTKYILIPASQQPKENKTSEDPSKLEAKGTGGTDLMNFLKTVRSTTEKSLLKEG
# T2 sequence (P48775 19-406 limits assumed): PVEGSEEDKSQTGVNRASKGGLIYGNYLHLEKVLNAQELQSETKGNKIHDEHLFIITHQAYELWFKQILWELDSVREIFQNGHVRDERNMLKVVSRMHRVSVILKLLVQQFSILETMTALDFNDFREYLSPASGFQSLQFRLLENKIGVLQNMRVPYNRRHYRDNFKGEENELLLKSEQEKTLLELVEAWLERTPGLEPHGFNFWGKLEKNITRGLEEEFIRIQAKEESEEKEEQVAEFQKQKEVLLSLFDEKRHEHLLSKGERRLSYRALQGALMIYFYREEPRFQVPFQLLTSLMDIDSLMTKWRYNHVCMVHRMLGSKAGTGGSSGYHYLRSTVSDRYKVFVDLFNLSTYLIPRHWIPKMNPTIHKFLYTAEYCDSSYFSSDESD
Compound,IC50 [1] [nM],IC50 [2] [nM]
"CCNC(=O)c1ccc(-n2cc(C(O)c3c(C4CC4)sc4cncn34)nn2)cc1 (racemic) [Example 107, rac-4-{4-[(2-Cyclopropyl-imidazo[5,1-b]thiazol-3-yl)-hydroxy-methyl]-[1,2,3]triazol-1-yl}-N-ethyl-benzamide]",16.6,> 10200
"CC(C)(C)C(=O)Nc1ccc(-n2cc(C(O)c3c(C4CC4)sc4cncn34)nn2)cc1 (racemic) [Example 187, rac-N-(4-{4-[(2-Cyclopropyl-imidazo[5,1-b]thiazol-3-yl)-hydroxy-methyl]-[1,2,3]triazol-1-yl}-phenyl)-2,2-dimethyl-propionamide]",13.7,> 10200
"OC(c1cn(-c2ccc(C(F)(F)F)cc2)nn1)c1c(C2CC2)sc2cncn12 (racemic) [Example 6, rac-(2-Cyclopropyl-imidazo[5,1-b]thiazol-3-yl)-[1-(4-trifluoromethyl-phenyl)-1H-[1,2,3]triazol-4-yl]-methanol]",119,> 10200
"CC(C)(C)OC(=O)Nc1ccc(-n2cc(C(O)c3c(C4CC4)sc4cncn34)nn2)c(F)c1 (racemic) [Example 151, rac-(4-{4-[(2-Cyclopropyl-imidazo[5,1-b]thiazol-3-yl)-hydroxy-methyl]-[1,2,3]triazol-1-yl}-3-fluoro-phenyl)-carbamic Acid Tert-Butyl Ester]",55.8,> 10200
"COc1ccc(-n2cc(C(O)c3c(C4CC4)sc4cncn34)nn2)cc1C#N (racemic) [Example 135, rac-5-{4-[(2-Cyclopropyl-imidazo[5,1-b]thiazol-3-yl)-hydroxy-methyl]-[1,2,3]triazol-1-yl}-2-methoxy-benzonitrile]",14,> 10200
"Cc1sc2cncn2c1C(O)c1cn(-c2ccccc2)nn1 (racemic) [Example 17, rac-(2-Methyl-imidazo[5,1-b]thiazol-3-yl)-(1-phenyl-1H-[1,2,3]triazol-4-yl)-methanol]",154,> 10200
"OC(c1cn(-c2cnc3c(c2)CCCO3)nn1)c1c(C2CC2)sc2cncn12 (racemic) [Example 72, rac-(2-Cyclopropyl-imidazo[5,1-b]thiazol-3-yl)-[1-(3,4-dihydro-2H-pyrano[2,3-b]pyridin-6-yl)-1H-[1,2,3]triazol-4-yl]-methanol]",35.5,> 10200
"Oc1c(F)cc(-n2cc(C(O)c3c(C4CC4)sc4cncn34)nn2)cc1F (racemic) [Example 149, rac-4-{4-[(2-Cyclopropyl-imidazo[5,1-b]thiazol-3-yl)-hydroxy-methyl]-[1,2,3]triazol-1-yl}-2,6-difluoro-phenol]",3.8,> 10200
"OC(c1cn(Cc2ccccc2)nn1)c1c(C2CC2)sc2cncn12 (racemic) [Example 1, rac-(1-Benzyl-1H-[1,2,3]triazol-4-yl)-(2-cyclopropyl-imidazo[5,1-b]thiazol-3-yl)-methanol]",90.3,> 10200
"COC(=O)Nc1ccc(-n2cc(C(O)c3c(C)sc4cncn34)nn2)cc1 (racemic) [Example 58, rac-(4-{4-[Hydroxy-(2-methyl-imidazo[5,1-b]thiazol-3-yl)-methyl]-[1,2,3]triazol-1-yl}-phenyl)-carbamic Acid Methyl Ester]",69.1,8050
"CCc1sc2cncn2c1C(O)c1cn(-c2ccc(C(=O)NCCO)cc2)nn1 (racemic) [Example 118, rac-4-{4-[(2-Ethyl-imidazo[5,1-b]thiazol-3-yl)-hydroxy-methyl]-[1,2,3]triazol-1-yl}-N-(2-hydroxy-ethyl)-benzamide]",15.8,9550
"O[C@@H](c1cn(-c2ccc(OCC3CC3)cc2)nn1)c1c(C2CC2)sc2cncn12 [Example 35a, (R)-(2-Cyclopropyl-imidazo[5,1-b]thiazol-3-yl)-[1-(4-cyclopropylmethoxy-phenyl)-1H-[1,2,3]triazol-4-yl]-methanol]",9.7,> 10200
"OC(c1cn(-c2ccc(OCc3ccccc3)nc2)nn1)c1c(C2CC2)sc2cncn12 (racemic) [Example 77, rac-[1-(6-Benzyloxy-pyridin-3-yl)-1H-[1,2,3]triazol-4-yl]-(2-cyclopropyl-imidazo[5,1-b]thiazol-3-yl)-methanol]",32.7,> 10200
"CC(C)Oc1ccc(-n2cc(C(O)c3c(C4CC4)sc4cncn34)nn2)cc1 (racemic) [Example 33, rac-(2-Cyclopropyl-imidazo[5,1-b]thiazol-3-yl)-[1-(4-isopropoxy-phenyl)-1H-[1,2,3]triazol-4-yl]-methanol]",20,> 10200
"OC(c1ccc(-c2ccccc2C(F)(F)F)s1)c1c(C2CC2)sc2cncn12 (racemic) [Example 170, rac-(2-Cyclopropyl-imidazo[5,1-b]thiazol-3-yl)-[5-(2-trifluoromethyl-phenyl)-thiophen-2-yl]-methanol]",550,3820

# Second part, the molecule after the results:
IC50 [1] [nM],IC50 [2] [nM],Compound
40.8,6810,"CCc1sc2cncn2c1C(O)c1cn(-c2ccc(NC(=O)OC(C)(C)C)cc2F)nn1 (racemic) [Example 245, rac-(4-{4-[(2-Ethyl-imidazo[5,1-b]thiazol-3-yl)-hydroxy-methyl]-[1,2,3]triazol-1-yl}-3-fluoro-phenyl)-carbamic Acid Tert-Butyl Ester]"
36.7,7940,"CCc1sc2cncn2c1C(O)c1cn(-c2ccc(NC(=O)OC(C)(C)C)cc2)nn1 (racemic) [Example 234, rac-(4-{4-[(2-Ethyl-imidazo[5,1-b]thiazol-3-yl)-hydroxy-methyl]-[1,2,3]triazol-1-yl}-phenyl)-carbamic Acid Tert-Butyl Ester]"
13.6,> 10200,"CCc1c(C(O)c2c(C3CC3)sc3cncn23)nnn1-c1ccc(OC)cc1 (racemic) [Example 279, rac-(2-Cyclopropyl-imidazo[5,1-b]thiazol-3-yl)-[5-ethyl-1-(4-methoxy-phenyl)-1H-[1,2,3]triazol-4-yl]-methanol]"
7.03,> 10200,"OCCCOc1ccc(-n2cc([C@H](O)c3c(C4CC4)sc4cncn34)nn2)cc1Cl [Example 275, 3-(2-Chloro-4-{4-[(R)-(2-cyclopropyl-imidazo[5,1-b]thiazol-3-yl)-hydroxy-methyl]-[1,2,3]triazol-1-yl}-phenoxy)-propan-1-ol]"
101,> 10200,"CCc1sc2cncn2c1C(O)c1cn(-c2ccc(S(=O)(=O)N(CC)CC)cc2)nn1 (racemic) [Example 243, rac-N,N-Diethyl-4-{4-[(2-ethyl-imidazo[5,1-b]thiazol-3-yl)-hydroxy-methyl]-[1,2,3]triazol-1-yl}-benzenesulfonamide]"
199,2620,"Oc1ccc(-n2cc(C(O)c3c(C4CC4)sc4cncn34)nn2)c(OC(F)(F)F)c1 (racemic) [Example 213, rac-4-{4-[(2-Cyclopropyl-imidazo[5,1-b]thiazol-3-yl)-hydroxy-methyl]-[1,2,3]triazol-1-yl}-3-trifluoromethoxy-phenol]"
2.1,7780,"CCc1sc2cncn2c1C(O)c1cn(-c2ccc(OCCCO)c(Cl)c2)nn1 (racemic) [Example 320, rac-3-(2-Chloro-4-{4-[(2-ethyl-imidazo[5,1-b]thiazol-3-yl)-hydroxy-methyl]-[1,2,3]triazol-1-yl}-phenoxy)-propan-1-ol]"
4.63,> 10200,"O[C@@H](c1cn(-c2ccc(OCC3CCOCC3)c(Cl)c2)nn1)c1c(C2CC2)sc2cncn12 [Example 276, (R)-{1-[3-Chloro-4-(tetrahydro-pyran-4-ylmethoxy)-phenyl]-1H-[1,2,3]triazol-4-yl}-(2-cyclopropyl-imidazo[5,1-b]thiazol-3-yl)-methanol]"
122,> 10200,"OCCCOc1ccc(-n2cc(C(O)c3c(-c4ccccc4)sc4cncn34)nn2)cc1Cl (racemic) [Example 267, rac-3-(2-Chloro-4-{4-[hydroxy-(2-phenyl-imidazo[5,1-b]thiazol-3-yl)-methyl]-[1,2,3]triazol-1-yl}-phenoxy)-propan-1-ol]"
2.99,> 10200,"COc1cc(F)c(-n2cc(C(O)c3c(C4CC4)sc4cncn34)nn2)cc1F (racemic) [Example 318, rac-(2-Cyclopropyl-imidazo[5,1-b]thiazol-3-yl)-[1-(2,5-difluoro-4-methoxy-phenyl)-1H-[1,2,3]triazol-4-yl]-methanol]"
10.5,6190,"Oc1ccc(-n2cc(C(O)c3c(C4CC4)sc4cncn34)nn2)c(Cl)c1 (racemic) [Example 212, rac-3-Chloro-4-{4-[(2-cyclopropyl-imidazo[5,1-b]thiazol-3-yl)-hydroxy-methyl]-[1,2,3]triazol-1-yl}-phenol]"
83.2,> 10200,"COc1ccc(-n2cc(C(O)c3c(C=C(C)C)sc4cncn34)nn2)cc1 (racemic) [Example 262, rac-[1-(4-Methoxy-phenyl)-1H-[1,2,3]triazol-4-yl]-[2-(2-methyl-propenyl)-imidazo[5,1-b]thiazol-3-yl]-methanol]"
